Assay results reported in patent US20200131196A1 (Mount Tam Therapeutics, Inc., priority 2017, published 2020).

Legend:
Hs 852.T = assay: OncoPanel cell proliferation assay, Hs 852.T; assay type: cell-based, human
Protocol: (§1) Cells were grown in RPMI 1640, 10% FBS, 2 mM L-alanyl-L-glutamine, 1 mM Na pyruvate, or a special medium. Cells were seeded into 384-well plates and incubated in a humidified atmosphere of 5% CO2 at 37° C. Compounds were added the day following cell seeding. At the same time, a time zero untreated cell plate was generated. After a 3-day incubation period, cells were fixed and stained to allow fluorescence imaging of nuclei. Compounds (1 mM stock solutions) were serially diluted in half-log steps from the highest test concentration ([…]), and assayed over 10 concentrations with a maximum assay concentration of 0.1% DMSO. Automated fluorescence microscopy was carried out using a Molecular Devices ImageXpress Micro XL high-content imager, and images were collected with a 4× objective. 16-bit TIFF images were acquired and analyzed with MetaXpress 5.1.0.41 software.
(§2) Cell proliferation was measured by the fluorescence intensity of an incorporated nuclear dye. The output is referred to as the relative cell count, where the measured nuclear intensity is transformed to percent of control (POC) using the following formula: […]
(§3) Cellular response parameters were calculated using nonlinear regression to a sigmoidal single-site dose response model:
(§4) EC50 is the test compound concentration at the curve inflection point or half the effective response (parameter C of the fitted curve solution). GI50 is the concentration needed to reduce the observed growth by half (midway between the curve maximum and the time zero value). “Cell Count Activity Area” is an estimate of the integrated area above the curve (Barretina, et al. The Cancer Cell Line Encyclopedia enables predictive modelling of anticancer drug sensitivity. Nature 483: 603-607). […] In rare instances, values <0 or >10 may be observed. […] Curve-fitting, calculations, and report generation was performed using a custom data reduction engine and MathIQ based software (AIM).

CEM-C1 = assay: OncoPanel cell proliferation assay, CEM-C1; assay type: cell-based, human
Protocol: as §1, §2, §3, §4

CaOV3 = assay: OncoPanel cell proliferation assay, CaOV3; assay type: cell-based, human
Protocol: as §1, §2, §3, §4

DMS114 = assay: OncoPanel cell proliferation assay, DMS114; assay type: cell-based, human
Protocol: as §1, with “Cells” for “Cells were grown in RPMI 1640, 10% FBS, 2 mM L-alanyl-L-glutamine, 1 mM Na pyruvate, or a special medium. Cells”
as §2, §3
GI50 is the concentration needed to reduce the observed growth by half (midway between the curve maximum and the time zero value). […] In rare instances, values <0 or >10 may be observed. […] Curve-fitting, calculations, and report generation was performed using a custom data reduction engine and MathIQ based software (AIM).

PC-3 = assay: OncoPanel cell proliferation assay, PC-3
Protocol: Cells were seeded into 384-well plates and incubated in a humidified atmosphere of 5% CO2 at 37° C. Compounds were added the day following cell seeding. At the same time, a time zero untreated cell plate was generated. After a 3-day incubation period, cells were fixed and stained to allow fluorescence imaging of nuclei. Compounds (1 mM stock solutions) were serially diluted in half-log steps from the highest test concentration (1 micromol), and assayed over 10 concentrations with a maximum assay concentration of 0.1% DMSO. Automated fluorescence microscopy was carried out using a Molecular Devices ImageXpress Micro XL high-content imager, and images were collected with a 4× objective. 16-bit TIFF images were acquired and analyzed with MetaXpress 5.1.0.41 software.

AGS = assay: OncoPanel cell proliferation assay, AGS; assay type: cell-based, human
Protocol: as §1, §2, §3, §4

SK-MEL-28 = assay: OncoPanel cell proliferation assay, SK-MEL-28; assay type: cell-based, human
Protocol: as §1, §2, §3, §4

[1] = Homo sapiens, read-out: Cell Count EC50
[2] = Homo sapiens, read-out: Cell Count GI50
[3] = Homo sapiens, read-out: Cell Count IC50

## CO[C@H]1C[C@@H]2CC[C@@H](C)[C@@](O)(O2)C(=O)C(=O)N2CCCC[C@H]2C(=O)O[C@H]([C@H](C)C[C@H]2C[C@H]3C[C@@H]2C[C@@H]3O)CC(=O)[C@H](C)/C=C(\C)[C@@H](O)[C@@H](OC)C(=O)[C@H](C)C[C@H](C)/C=C/C=C/C=C/1C [Formula II, C37-[(1R,2S,4R,5S)-5-hyhroxybicyclo[2.2.1]heptane] rapamycin]
Hs 852.T
  Cell Count Activity Area: 0.95
Hs 852.T; 1.00E+00 microM
  Relative cell count (%) Mean: 72.0%
Hs 852.T; 1.00E-01 microM
  Relative cell count (%) Mean: 80.1%
Hs 852.T; 1.00E-02 microM
  Relative cell count (%) Mean: 91.2%
Hs 852.T; 1.00E-03 microM
  Relative cell count (%) Mean: 92.9%
Hs 852.T; 1.01E-04 microM
  Relative cell count (%) Mean: 98.7%
Hs 852.T; 3.16E-01 microM
  Relative cell count (%) Mean: 73.2%
Hs 852.T; 3.17E-02 microM
  Relative cell count (%) Mean: 82.3%
Hs 852.T; 3.17E-03 microM
  Relative cell count (%) Mean: 90.6%
Hs 852.T; 3.18E-04 microM
  Relative cell count (%) Mean: 92.8%
Hs 852.T; 3.18E-05 microM
  Relative cell count (%) Mean: 95.0%
Hs 852.T; [1]
  EC50: > 1000 nM
Hs 852.T; [2]
  GI50: > 1000 nM
Hs 852.T; [3]
  IC50: > 1000 nM
CEM-C1
  Cell Count Activity Area: 3.13
CEM-C1; 1.00E+00 microM
  Relative cell count (%) Mean: 51.5%
CEM-C1; 1.00E-01 microM
  Relative cell count (%) Mean: 56.2%
CEM-C1; 1.00E-02 microM
  Relative cell count (%) Mean: 66.8%
CEM-C1; 1.00E-03 microM
  Relative cell count (%) Mean: 82.0%
CEM-C1; 1.01E-04 microM
  Relative cell count (%) Mean: 98.1%
CEM-C1; 3.16E-01 microM
  Relative cell count (%) Mean: 52.4%
CEM-C1; 3.17E-02 microM
  Relative cell count (%) Mean: 58.8%
CEM-C1; 3.17E-03 microM
  Relative cell count (%) Mean: 73.0%
CEM-C1; 3.18E-04 microM
  Relative cell count (%) Mean: 92.1%
CEM-C1; 3.18E-05 microM
  Relative cell count (%) Mean: 100.6%
CEM-C1; [1]
  EC50: 1.8 nM
CEM-C1; [2]
  GI50: 32.5 nM
CEM-C1; [3]
  IC50: 265 nM
CaOV3
  Cell Count Activity Area: 2.53
CaOV3; 1.00E+00 microM
  Relative cell count (%) Mean: 57.7%
CaOV3; 1.00E-01 microM
  Relative cell count (%) Mean: 63.1%
CaOV3; 1.00E-02 microM
  Relative cell count (%) Mean: 73.9%
CaOV3; 1.00E-03 microM
  Relative cell count (%) Mean: 76.4%
CaOV3; 1.01E-04 microM
  Relative cell count (%) Mean: 98.2%
CaOV3; 3.16E-01 microM
  Relative cell count (%) Mean: 60.5%
CaOV3; 3.17E-02 microM
  Relative cell count (%) Mean: 64.6%
CaOV3; 3.17E-03 microM
  Relative cell count (%) Mean: 78.3%
CaOV3; 3.18E-04 microM
  Relative cell count (%) Mean: 76.6%
CaOV3; 3.18E-05 microM
  Relative cell count (%) Mean: 97.5%
CaOV3; Homo sapiens, Caov-3, read-out: Cell Count EC50
  EC50: 1.59 nM
CaOV3; Homo sapiens, Caov-3, read-out: Cell Count GI50
  GI50: 47.7 nM
CaOV3; Homo sapiens, Caov-3, read-out: Cell Count IC50
  IC50: > 1000 nM
DMS114
  Cell Count Activity Area: 3.40
DMS114; 1.00E+00 microM
  Relative cell count (%) Mean: 43.1%
DMS114; 1.00E-01 microM
  Relative cell count (%) Mean: 50.1%
DMS114; 1.00E-02 microM
  Relative cell count (%) Mean: 62.2%
DMS114; 1.00E-03 microM
  Relative cell count (%) Mean: 74.7%
DMS114; 1.01E-04 microM
  Relative cell count (%) Mean: 102.9%
DMS114; 3.16E-01 microM
  Relative cell count (%) Mean: 46.7%
DMS114; 3.17E-02 microM
  Relative cell count (%) Mean: 52.5%
DMS114; 3.17E-03 microM
  Relative cell count (%) Mean: 63.9%
DMS114; 3.18E-04 microM
  Relative cell count (%) Mean: 83.4%
DMS114; 3.18E-05 microM
  Relative cell count (%) Mean: 99.7%
DMS114; Homo sapiens, DMS-114, read-out: Cell Count EC50
  EC50: 1.34 nM
DMS114; Homo sapiens, DMS-114, read-out: Cell Count GI50
  GI50: 0.611 nM
DMS114; Homo sapiens, DMS-114, read-out: Cell Count IC50
  IC50: 33.1 nM
PC-3; Homo sapiens, PC-3, read-out: Cell Count EC50
  EC50: 0.637 nM
PC-3; Homo sapiens, PC-3, read-out: Cell Count GI50
  GI50: 3.99 nM
PC-3; Homo sapiens, PC-3, read-out: Cell Count IC50
  IC50: 18.4 nM
PC-3; PC-3
  Cell Count Activity Area: 3.80
PC-3; PC-3, 1.00E+00 microM
  Relative cell count (%) Mean: 42.2%
PC-3; PC-3, 1.00E-01 microM
  Relative cell count (%) Mean: 50.3%
PC-3; PC-3, 1.00E-02 microM
  Relative cell count (%) Mean: 59.2%
PC-3; PC-3, 1.00E-03 microM
  Relative cell count (%) Mean: 70.9%
PC-3; PC-3, 1.01E-04 microM
  Relative cell count (%) Mean: 98.3%
PC-3; PC-3, 3.16E-01 microM
  Relative cell count (%) Mean: 47.6%
PC-3; PC-3, 3.17E-02 microM
  Relative cell count (%) Mean: 50.8%
PC-3; PC-3, 3.17E-03 microM
  Relative cell count (%) Mean: 61.5%
PC-3; PC-3, 3.18E-04 microM
  Relative cell count (%) Mean: 73.9%
PC-3; PC-3, 3.18E-05 microM
  Relative cell count (%) Mean: 96.9%
AGS
  Cell Count Activity Area: 5.29
AGS; 1.00E+00 microM
  Relative cell count (%) Mean: 41.7%
AGS; 1.00E-01 microM
  Relative cell count (%) Mean: 44.3%
AGS; 1.00E-02 microM
  Relative cell count (%) Mean: 41.0%
AGS; 1.00E-03 microM
  Relative cell count (%) Mean: 48.7%
AGS; 1.01E-04 microM
  Relative cell count (%) Mean: 87.1%
AGS; 3.16E-01 microM
  Relative cell count (%) Mean: 40.7%
AGS; 3.17E-02 microM
  Relative cell count (%) Mean: 42.8%
AGS; 3.17E-03 microM
  Relative cell count (%) Mean: 51.4%
AGS; 3.18E-04 microM
  Relative cell count (%) Mean: 63.8%
AGS; 3.18E-05 microM
  Relative cell count (%) Mean: 124.5%
AGS; [1]
  EC50: 0.133 nM
AGS; [2]
  GI50: 0.245 nM
AGS; [3]
  IC50: 0.297 nM
SK-MEL-28
  Cell Count Activity Area: 2.68
SK-MEL-28; 1.00E+00 microM
  Relative cell count (%) Mean: 60.6%
